Measurements reported in PubChem BioAssay (NCI).
Where “and” joins values, the source holds several entries; their conditions need not be identical. Identical values can stand only once.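 Interpolation was linear, between the two tested concentrations surrounding the appropriate level; five concentrations were tested over 48 hours in 96-well plates. Abbreviation: GI50, concentration required for 50% inhibition of growth. Definition used: TGI = concentration required for complete inhibition of growth.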

Legend:
Assay in all cases: inhibition of tumour cell growth, NCI panel, 48 h
[1] = system: OVCAR-4 ovarian
[2] = system: UO-31 renal
[3] = system: UACC-257 melanoma
[4] = system: SN12C renal
[5] = system: PC-3 prostate
[6] = system: NCI/ADR-RES ovarian
[7] = system: OVCAR-8 ovarian
[8] = system: SF-295 CNS
[9] = system: HOP-92 NSCLC
[10] = system: MDA-MB-231 breast

Structure (SMILES) | GI50 [1] | TGI [1] [µM] | GI50 [2] | TGI [2] | GI50 [3] | TGI [3] | GI50 [4] | TGI [4] [µM] | GI50 [5] | TGI [5] | GI50 [6] [µM] | TGI [6] [µM] | GI50 [7] | TGI [7] | GI50 [8] | TGI [8] | GI50 [9] | TGI [9] | GI50 [10] | TGI [10]
C=C(CN1CCN(c2ccccc2C(F)(F)F)CC1)c1ccc(C(=O)Nc2ccccc2N)cc1 | 6.53 µM | > 84.3 | 1 µM | > 60.3 µM | 4.66 µM | > 62.6 µM | 6.43 µM | 23.9 | 1.91 µM | 12 µM | 2.01 | 10.5 | 3.84 µM | > 100 µM | 5.98 µM | 42.9 µM | 1.85 µM | 30.9 µM | 4.68 µM | > 56.1 µM
O=C(/C=C/c1cccc(S(=O)(=O)Nc2ccccc2)c1)NO | 1.98 µM and 1.08 µM | > 100 | 0.448 µM and 0.134 µM | 5.91 µM and 29.5 µM | 0.553 µM and 0.25 µM | 10.8 µM and > 100 µM | 1.68 µM and 0.244 µM |  | 0.557 µM and 0.151 µM | 51.2 µM and 21.8 µM |  | 6.51 | 0.309 µM and 0.0341 µM | 16.9 µM and 17 µM | 0.579 µM and 0.603 µM | 3.12 µM and 3.97 µM | 0.27 µM and 0.074 µM | 2.19 µM and 1.21 µM | 0.577 µM and 0.216 µM | 19.9 µM and 5.63 µM
O=Cc1ccc(-c2ccc(-c3ccc(C=O)o3)[se]2)o1 | > 100 µM | > 100 | > 100 µM | > 100 µM | > 100 µM | > 100 µM | > 100 µM | > 100 | > 100 µM | > 100 µM | > 100 | > 100 | > 100 µM | > 100 µM | > 46.2 µM | > 65.6 µM | 57.1 µM | > 100 µM | 54 µM | > 100 µM
COc1cc(/C=C/C(=O)c2c(C)nc3ccccc3c2C)ccc1OCCCCOc1cc2c(cc1OC)C(=O)N1CCC[C@H]1C=N2 | 0.47 µM | 4.62 | 0.252 µM | 1.08 µM | 0.261 µM | 0.822 µM | 0.509 µM | 9.87 | 0.296 µM | 1.35 µM | 3.06 | 40.4 | 0.245 µM | 0.703 µM | 0.416 µM | 1.56 µM | 0.19 µM | 0.632 µM | 0.606 µM | 3.51 µM
CS(=N)(=O)CCC(N)P(=O)(O)O (stereo not drawn) |  | > 100 |  | > 100 µM |  | > 100 µM |  | > 100 |  | > 100 µM |  | > 100 |  | > 100 µM |  | > 100 µM |  | > 100 µM |  | > 100 µM
CCOC(=O)[C@@H](C)C[C@H](Cc1ccccc1)NC(=O)c1csc([C@@H](C[C@H](C(C)C)N(C)C(=O)[C@@H](NC(=O)[C@H]2C[C@H](O)CCN2C)C(C)C)OC(C)=O)n1 | 0.0259 µM | > 16.7 | 0.647 µM | > 16.7 µM | > 16.7 µM | > 16.7 µM | 0.00936 µM | > 16.7 | 0.00187 µM | > 16.7 µM | 2.67 | > 16.7 | 0.0166 µM | > 16.7 µM | 0.00781 µM | > 16.7 µM | 0.00663 µM | > 4.46 µM | 0.00565 µM | 3.24 µM
CCOc1cc(/C=C/C(=O)C(C(=O)/C=C/c2ccc(OC(=O)CNc3nnc(C)s3)c(OCC)c2)C(=O)CNc2nnc(C)s2)ccc1OC(=O)CNc1nnc(C)s1 | 3.91 µM | 45.1 | 1.41 µM | 7.81 µM | 2.81 µM | 9.54 µM | 1.86 µM | 6.4 | 1.51 µM | 15.6 µM | 3.51 | > 71.2 | 3.43 µM | 14.4 µM | 3.08 µM | 10.7 µM | 2.13 µM | 6.6 µM | 1.99 µM | 6.15 µM
NS(=O)(=O)c1ccc(N=C2C(=O)Nc3ccccc32)cc1 |  | > 100 |  | > 100 µM |  | > 100 µM |  | > 100 |  | > 100 µM |  | > 100 |  | > 100 µM |  | > 100 µM |  | > 100 µM |  | > 100 µM
COc1ccc(C2CC(c3ccc4ccccc4c3)=NN2c2nc(O)c(C3=c4cc(OC)ccc4=NC3=O)s2)cc1 (stereo not drawn) | 0.033 µM | 0.128 | 0.202 µM | 0.414 µM | 0.718 µM | 6.14 µM | 0.166 µM | 0.464 | 0.0675 µM | 0.334 µM | 1.89 | > 100 | 0.0646 µM | 1.26 µM | 0.0608 µM | 0.165 µM | 0.131 µM | 0.358 µM | 0.0408 µM | 0.201 µM
O=C(Nc1ccc(I)cc1)c1cccc([N+](=O)[O-])c1O | 2.61 µM | 25 | 2.02 µM | 8.49 µM | 2.96 µM | 8.57 µM | 3.54 µM | > 100 | 2.72 µM | 14.6 µM | 2.94 | > 100 | 4.37 µM | > 100 µM | 2.39 µM | 11.3 µM | 0.373 µM | 3.22 µM | 6.03 µM | > 100 µM
FC(F)(F)c1ccc(-c2ncc(-c3ccc(C(F)(F)F)cc3)c(NCc3cc(C(F)(F)F)cc(C(F)(F)F)c3)n2)cc1 | 4.11 µM | > 100 | 2.94 µM | 36.6 µM | 5.29 µM | 44.4 µM | 3.65 µM | > 100 | 3.09 µM | 18.3 µM | 4.62 | > 100 | 3.8 µM | > 100 µM | 2.94 µM | 28.3 µM | 1.7 µM | 5.05 µM | 3.81 µM | 14.8 µM
